Here are results for 29 compounds from patent US5023236A, “Factor VII/VIIA active site inhibitors” (Corvas, Inc., priority 1989, dated 1991).

For assay [1], the target named is T1, factor VII/VIIa in the binary complex with tissue factor (Homo sapiens, UniProt P08709).
T1 construct: purified human factor VII (1 nM), purified as described by Fair, D; from tissue; TF endogenous on J82 cells (ATCC HTB1)
Put plainly: linked enzyme chromogenic assay of factor X activation (S2222) with factor VII and TF positive J82 cells. In kind it is biochemical. The settings on record: for Relative potency Ki 5 (MU): P3 side chain of peptide P3-Thr-Arg, one unit = inverse of the molar concentration at 5% inhibition of factor X activation; for Peptide (Ki 5): free peptide; for Peptide (Ki 5) / Peptidyl-CMK (Ki 5): inverse of molar concentration at 5% inhibition of factor X activation; for inhibitory activity (in words): peptides with R3 side chain on threonyl-arginine; for Ki 5: peptidyl chloromethyl ketones, Table 3; for Peptidyl-CMK (Ki 5): chloromethyl ketone analogue; for IC50: concentration required for 50% inhibition of the rate of factor X activation, column beside Peptidyl-CMK, read-out: Ki 50 (the source's name). How it is done:
Relative potency is expressed as megaunits (MU), where one unit is equal
to the inverse of the molar concentration at 5% inhibition of factor X
activation. Quantitation of inhibition of factor VII/VIIa in the binary
complex with tissue factor was performed in a linked enzyme chromogenic
assay using factor X, purified as described by Schwartz, B. S. et al.
(1981) J. Clin. Invest. 67:1650, and the chromogenic substrate S2222
(Helena Labs, Beaumont, Texa s). Briefly, the peptides were preincubated
with purified human factor VII (1 nM), purified as described by Fair, D.
incubation at room temperature 25 μl of 20 mM CaCl2, 1 ×
10^5 TF positive human bladder carcinoma derived J82 cells (available
from American Type Culture Collection, Rockville, Maryland, under
Accession No. ATCC HTB1), 25 μl of purified human factor human factor
(100 .eta.M) in 50 μl of TRIS buffered saline and 50 μl of 2 mM
S2222 was added. The use of J82 cells is an important feature of these in
vitro assays because they produce significant levels of TF for the
formation of active TF:VII/VIIa. The rate of conversion of factor X to Xa
was monitored kinetically by determination of the chromogenic product of
Inhibition by the compounds of this invention of the proteolytic activity of [TF:VII/VIIa] on factor X was analyzed by a chromogenic assay in which the substrate S-2222 is cleaved by the generated factor Xa. […] Analyses included the absence of effect of all such compounds on factor Xa, an enzyme closely homologous to factor VII and VIIa. […]

A further assay deals with T2, [TF:VII/VIIa] complex (Homo sapiens, UniProt P08709).
T2 construct: from tissue; host or cells: normal human plasma (factor VII); J82 cells (endogenous TF)
Nature of the assay: clotting inhibition of normal human plasma with J82 cells. In kind it is biochemical. How it is done: Normal human plasma was diluted 1:3 by volume with 0.02 M Na Citrate, 0.14M NaCl pH 7.4 in a glass tube. Diluted plasma (100μl) was then mixed with 100μl of J82 cells at 1×10^6 cells/ml and 100 μl of inhibitor. Plasma clotting times were obtained by visual observation of initial turbidity following addition of 100 μl of 20 mM calcium chloride. Human plasma clotting times were also expressed as calculated milli-units of TF activity (assuming no inhibitor present).

Non-standard residues stand in square brackets, D forms with d. Residues, ends and D or L forms follow the SMILES beside them. *: point of attachment. Dansyl = CN(C)c1cccc2c(S(=O)(=O)*)cccc12; Tos = Cc1ccc(S(=O)(=O)*)cc1; CH2Cl = ClC*

T1 sequence (P08709 213-466 limits assumed): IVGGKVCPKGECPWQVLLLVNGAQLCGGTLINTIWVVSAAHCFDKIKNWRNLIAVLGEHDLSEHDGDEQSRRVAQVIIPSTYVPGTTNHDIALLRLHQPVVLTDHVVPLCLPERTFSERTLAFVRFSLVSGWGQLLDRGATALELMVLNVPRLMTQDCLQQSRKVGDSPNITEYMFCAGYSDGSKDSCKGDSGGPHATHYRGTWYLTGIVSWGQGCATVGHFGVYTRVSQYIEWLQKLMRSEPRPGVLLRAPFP
T1 sequence (P08709 61-212 partner limits assumed): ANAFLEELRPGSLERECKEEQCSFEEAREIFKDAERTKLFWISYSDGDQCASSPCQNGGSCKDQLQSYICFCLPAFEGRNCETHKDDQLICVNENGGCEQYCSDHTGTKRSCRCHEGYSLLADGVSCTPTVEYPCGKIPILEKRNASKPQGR
T1 sequence (P13726 33-295 partner): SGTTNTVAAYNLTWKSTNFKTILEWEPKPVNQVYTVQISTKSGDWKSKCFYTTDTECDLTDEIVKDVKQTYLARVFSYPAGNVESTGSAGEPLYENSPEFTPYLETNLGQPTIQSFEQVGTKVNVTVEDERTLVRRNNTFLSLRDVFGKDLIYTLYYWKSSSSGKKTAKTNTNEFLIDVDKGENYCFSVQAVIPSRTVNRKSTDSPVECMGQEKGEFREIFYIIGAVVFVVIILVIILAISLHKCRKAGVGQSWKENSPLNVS
T2 sequence (P08709 213-466 limits assumed): as the sequence (P08709 213-466 limits assumed) above
T2 sequence (P08709 61-212 partner limits assumed): as the sequence (P08709 61-212 partner limits assumed) above
T2 sequence (P13726 33-295 partner): as the sequence (P13726 33-295 partner) above

In the case of `C[C@@H](O)[C@H](NC(=O)[C@@H](N)CC(N)=O)C(=O)N[C@@H](CCCNC(=N)N)C(=O)O` [Example 1, H-L-Asn-L-Thr-L-Arg] (H-Asn-Thr-Arg-OH), the “Relative potency Ki 5 (MU)” value in assay [1] came out at 6.7 MU.

With `C[C@@H](O)[C@H](NC(=O)[C@@H](N)CC(=O)O)C(=O)N[C@@H](CCCNC(=N)N)C(=O)O` [Example 2, H-L-Asp-L-Thr-L-Arg] (H-Asp-Thr-Arg-OH), the “Relative potency Ki 5 (MU)” value in assay [1] came out at 4.8 MU.

With `C[C@@H](O)[C@H](NC(=O)[C@@H](N)Cc1c[nH]cn1)C(=O)N[C@@H](CCCNC(=N)N)C(=O)O` [Example 3, H-L-His-L-Thr-L-Arg] (H-His-Thr-Arg-OH), in assay [1], the “Relative potency Ki 5 (MU)” value is 6.2 MU and the “Peptide (Ki 5)” value worked out at 6.2 MU.

As to `CC(C)C[C@H](N)C(=O)N[C@H](C(=O)N[C@@H](CCCNC(=N)N)C(=O)O)[C@@H](C)O` [Example 4, H-L-Leu-L-Thr-L-Arg] (H-Leu-Thr-Arg-OH), in assay [1], the “Relative potency Ki 5 (MU)” value is reported as 4.5 MU and the “Peptide (Ki 5)” value is given as 4.5 MU.

For `C[C@@H](O)[C@H](N)C(=O)N[C@H](C(=O)N[C@@H](CCCNC(=N)N)C(=O)O)[C@@H](C)O` [Example 5, H-L-Thr-L-Thr-L-Arg] (H-Thr-Thr-Arg-OH), the “Relative potency Ki 5 (MU)” value in assay [1] was 2.6 MU.

For `C[C@@H](O)[C@H](NC(=O)[C@@H](N)CCC(N)=O)C(=O)N[C@@H](CCCNC(=N)N)C(=O)O` [Example 6, H-L-Gln-L-Thr-L-Arg] (H-Gln-Thr-Arg-OH), in assay [1], the “Relative potency Ki 5 (MU)” value came out at 2.5 MU.

Consider `C[C@@H](O)[C@H](N)C(=O)N[C@@H](CCCNC(=N)N)C(=O)O` [Example 7, H-L-Thr-L-Arg] (H-Thr-Arg-OH), for which, in assay [1], the “Relative potency Ki 5 (MU)” value was determined as 2.0 MU and the “inhibitory activity (in words)” value is recorded as “slight activity”.

`C[C@@H](O)[C@H](NC(=O)[C@@H](N)CC(N)=O)C(=O)N[C@@H](CCCNC(=N)N)C(=O)CCl` [Example 8, H-L-Asn-L-Thr-L-Arg-CMK] (H-Asn-Thr-Arg-CH2Cl): the “Ki 5” value in assay [1] was found to be 44 MU.

Take `C[C@@H](O)[C@H](NC(=O)[C@@H](N)CC(=O)O)C(=O)N[C@@H](CCCNC(=N)N)C(=O)CCl` [Example 9, H-L-Asp-L-Thr-L-Arg-CMK] (H-Asp-Thr-Arg-CH2Cl): the “Ki 5” value in assay [1] was 60 MU.

Take `C[C@@H](O)[C@H](NC(=O)[C@@H](N)Cc1c[nH]cn1)C(=O)N[C@@H](CCCNC(=N)N)C(=O)CCl` [Example 10, H-L-His-L-Thr-L-Arg-CMK] (H-His-Thr-Arg-CH2Cl): in assay [1], the “Peptidyl-CMK (Ki 5)” value came out at 54.0 MU, the IC50 turned out to be 120 µM and the “Ki 5” value stood at 54 MU.

Regarding `CC(C)C[C@H](N)C(=O)N[C@H](C(=O)N[C@@H](CCCNC(=N)N)C(=O)CCl)[C@@H](C)O` [Example 11, H-L-Leu-L-Thr-L-Arg-CMK] (H-Leu-Thr-Arg-CH2Cl), in assay [1], the “Peptidyl-CMK (Ki 5)” value worked out at 67.5 MU, the IC50 was 95 µM and the “Ki 5” value was 68 MU. In addition, the inhibition at 3 µM in assay [TF:VII/VIIa] complex (LTR-CMK final conc 3 μM) was found to be 5.3%. The compound further yielded an inhibition at 30 µM in assay [TF:VII/VIIa] complex (LTR-CMK final conc 30 μM) of 41%. The same compound came in with an inhibition at 300 µM in assay [TF:VII/VIIa] complex (LTR-CMK final conc 300 μM) of 75%.

Regarding `CC(C)C[C@@H](N)C(=O)N[C@H](C(=O)N[C@@H](CCCNC(=N)N)C(=O)CCl)[C@@H](C)O` [Example 15, H-D-Leu-L-Thr-L-Arg-CMK] (H-[dL]-Thr-Arg-CH2Cl), the “Ki 5” value in assay [1] is 100 MU.

For `C[C@@H](O)[C@H](NC(=O)[C@H](N)Cc1ccccc1)C(=O)N[C@@H](CCCNC(=N)N)C(=O)CCl` [Example 16, H-D-Phe-L-Thr-L-Arg-CMK] (H-[dF]-Thr-Arg-CH2Cl), in assay [1], the “Ki 5” value is on record as 42 MU.

Consider `CC(=O)N[C@@H](CC(C)C)C(=O)N[C@H](C(=O)N[C@@H](CCCNC(=N)N)C(=O)CCl)[C@@H](C)O` [Example 17, Ac-L-Leu-L-Thr-L-Arg-CMK] (Ac-Leu-Thr-Arg-CH2Cl), for which the “Ki 5” value in assay [1] is given as 60 MU.

Regarding `Cc1ccc(S(=O)(=O)N[C@@H](CC(C)C)C(=O)N[C@H](C(=O)N[C@@H](CCCNC(=N)N)C(=O)CCl)[C@@H](C)O)cc1` [Example 18, Tosyl-L-Leu-L-Thr-L-Arg-CMK] (Tos-Leu-Thr-Arg-CH2Cl), the “Ki 5” value in assay [1] is listed as 60 MU.

Regarding `CC(C)C[C@H](NS(=O)(=O)c1cccc2c(N(C)C)cccc12)C(=O)N[C@H](C(=O)N[C@@H](CCCNC(=N)N)C(=O)CCl)[C@@H](C)O` [Example 19, Dansyl-L-Leu-L-Thr-L-Arg-CMK] (Dansyl-Leu-Thr-Arg-CH2Cl), the “Ki 5” value in assay [1] was 35 MU.

In the case of `CC(C)C[C@H](N)C(=O)N[C@@H](CO)C(=O)N[C@@H](CCCNC(=N)N)C(=O)CCl` [Example 20, H-L-Leu-L-Ser-L-Arg-CMK] (H-Leu-Ser-Arg-CH2Cl), the “Ki 5” value in assay [1] came to 60 MU.

As for `CC(C)C[C@H](N)C(=O)N1CCC[C@H]1C(=O)N[C@@H](CCCNC(=N)N)C(=O)CCl` [Example 21, H-L-Leu-L-Pro-L-Arg-CMK] (H-Leu-Pro-Arg-CH2Cl), the “Ki 5” value in assay [1] was 60 MU.

As for `N=C(N)NCCC[C@H](NC(=O)[C@H](CO)NC(=O)[C@@H](N)CC(N)=O)C(=O)CCl` [Example 22, H-L-Asn-L-Ser-L-Arg-CMK] (H-Asn-Ser-Arg-CH2Cl), the “Ki 5” value in assay [1] came out at 60 MU.

For the compound `C[C@@H](O)[C@H](NC(=O)[C@@H](N)CCC(=O)O)C(=O)N[C@@H](CCCNC(=N)N)C(=O)O` [glutamyl] (H-Glu-Thr-Arg-OH), in assay [1], the “inhibitory activity (in words)” value was “inactive”.

For `C[C@@H](O)[C@H](NC(=O)CN)C(=O)N[C@@H](CCCNC(=N)N)C(=O)O` [glycyl] (H-Gly-Thr-Arg-OH), in assay [1], the “inhibitory activity (in words)” value was “inactive”.

Turning to `CC[C@H](C)[C@H](N)C(=O)N[C@H](C(=O)N[C@@H](CCCNC(=N)N)C(=O)O)[C@@H](C)O` [isoleucyl] (H-Ile-Thr-Arg-OH), the “inhibitory activity (in words)” value in assay [1] is “inactive”.

Consider `CSCC[C@H](N)C(=O)N[C@H](C(=O)N[C@@H](CCCNC(=N)N)C(=O)O)[C@@H](C)O` [methionyl] (H-Met-Thr-Arg-OH), for which, in assay [1], the “inhibitory activity (in words)” value is “inactive”.

As for `C[C@@H](O)[C@H](NC(=O)[C@@H](N)Cc1ccccc1)C(=O)N[C@@H](CCCNC(=N)N)C(=O)O` [phenylalanyl] (H-Phe-Thr-Arg-OH), in assay [1], the “inhibitory activity (in words)” value was “inactive”.

With `C[C@@H](O)[C@H](NC(=O)[C@@H]1CCCN1)C(=O)N[C@@H](CCCNC(=N)N)C(=O)O` [prolyl] (H-Pro-Thr-Arg-OH), the “inhibitory activity (in words)” value in assay [1] is “inactive”.

Take `C[C@@H](O)[C@H](NC(=O)[C@@H](N)CO)C(=O)N[C@@H](CCCNC(=N)N)C(=O)O` [seryl] (H-Ser-Thr-Arg-OH): the “inhibitory activity (in words)” value in assay [1] was “inactive”.

On to `C[C@@H](O)[C@H](NC(=O)[C@@H](N)Cc1c[nH]c2ccccc12)C(=O)N[C@@H](CCCNC(=N)N)C(=O)O` [tryptophanyl] (H-Trp-Thr-Arg-OH), for which the “inhibitory activity (in words)” value in assay [1] is “inactive”.

In the case of `C[C@@H](O)[C@H](NC(=O)[C@@H](N)Cc1ccc(O)cc1)C(=O)N[C@@H](CCCNC(=N)N)C(=O)O` [tyrosyl] (H-Tyr-Thr-Arg-OH), the “inhibitory activity (in words)” value in assay [1] is “inactive”.

For the compound `CC(C)[C@H](N)C(=O)N[C@H](C(=O)N[C@@H](CCCNC(=N)N)C(=O)O)[C@@H](C)O` [valyl] (H-Val-Thr-Arg-OH), the “inhibitory activity (in words)” value in assay [1] was “inactive”.

As a reminder, the inhibition is the drop in the measured response relative to a control, in per cent.
